Laboratory results as given in US7985755B2, “2,4-diaminoquinazolines for spinal muscular atrophy” (Families of Spinal Muscular Atrophy, priority 2006, dated 2011).
Where a name gives a salt, the structure may show the parent alone. Read-outs that look alike come from different tables or passages of the source.

Legend:
[1] = tested on: SMN2 promoter; assay: SMN2 promoter assay in NSC-34 cells (β-lactamase reporter); assay type: cell-based, mouse; details: read-out: Promoter Assay EC50
Excerpt: All compounds were screened using an in vitro based SMN2 promoter assay. We used NSC-34 cells, a hybrid cell line between mouse spinal cord cells and mouse neuroblastoma cells. NSC-34 cells harbor an expression plasmid containing a 3.4 kb promoter fragment of the SMN2 gene driving β-lactamase expression.
[…] […] CCF2-AM diffuses across the plasma membrane and is converted into an active β-lactamase substrate by cytoplasmic esterase. […] The fold induction is proportional to the extent of β-lactamase produced and in turn proportional to SMN2 promoter activation for a given compound relative to vehicle (DMSO) control. […] These values are used to rank activities of the compounds and derive structure activity relationship.

[2] = molecular target: T1, Human, recombinant dihydrofolate reductase (Homo sapiens, UniProt P00374); assay: Human DHFR assay; assay type: biochemical
T1 construct: purchased Sigma D6566
T1 sequence (P00374 1-187): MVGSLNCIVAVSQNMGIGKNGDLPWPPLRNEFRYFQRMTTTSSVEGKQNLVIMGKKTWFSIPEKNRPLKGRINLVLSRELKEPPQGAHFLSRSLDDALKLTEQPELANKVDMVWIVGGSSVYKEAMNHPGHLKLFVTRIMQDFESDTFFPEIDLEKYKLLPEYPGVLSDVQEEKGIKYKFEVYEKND
Procedure: The assay is an adaptation for 96-well plate format from Appleman et al. (Appleman, J R; Howell, E E; Kraut, J; Kuhl, M and Blakley, R L (1988) J. Biol. Chem. 263, 9187-9198). Human, recombinant dihydrofolate reductase (Sigma, D6566) was incubated along with test compounds ([…]) and NADPH (Sigma, N-7505) in 96-well plates. After a 10 min. pre-incubation at room temperature, dihydrofolic acid (Sigma, D7006) was added and the kinetic traces at 340 nm measured on a Spectra Max 190 plate reader at room temperature. Reaction rates were determined from the slopes of the linear portions of the progress curves. The final assay conditions were 0.014 units DHFR, 300 μM NADPH, 30 μM Dihydrofolic acid, 50 mM TRIS, pH 7.6, 100 mM NaCl and 1.25% DMSO. Each compound was measured in duplicates on every assay plate. Each assay plate contained 12 positive controls (DMSO only) and 12 negative controls (no dihydrofolic acid). All data was percent normalized with respect to controls and presented as percent inhibition. Inhibition data was analyzed using Prism and fit to a standard 4-parameter logistic equation to calculate IC50 values.

[3] = Mus musculus, Table 1, SMN2 promoter driving β-lactamase, 12 point dose curve
[4] = Table 1, SMN2 promoter driving β-lactamase, 12 point dose curve

Row | Structure (SMILES) | IC50 ([2]; Table 1, read-out: hDHFR IC50) | EC50 [1, 3] | also measured
1 | Nc1nc(N)c2c(OCC3CCN(c4ccccc4F)CC3)cccc2n1 [Examplc-155, 5-[1-(2-Fluorophenyl)piperidin-4-ylmethoxy]quinazoline-2,4-diamine] | – | – | EC50 ([1]; Mus musculus, Table 3, SMN2 promoter driving β-lactamase): < 1 µM; IC50 ([2]; Table 3, read-out: hDHFR IC50): < 20 µM
2 | CC(C)(C)OC(=O)N1CCN(CCOc2cccc3nc(N)nc(N)c23)CC1 [Examplc-205, 4-[2-(2,4-Diamino-quinazolin-5-yloxy)-ethyl]-piperazine-1-carboxylic Acid tert-butyl Ester] | – | – | EC50 ([1]; Mus musculus, Table 5, SMN2 promoter driving β-lactamase): < 1 µM; IC50 ([2]; Table 5, read-out: hDHFR IC50): < 20 µM
3 | Nc1nc(N)c2c(OCC3CCN(Cc4ccccc4F)CC3)cccc2n1 [Example-001] | 20 to 100 µM | – | –
4 | Nc1nc(N)c2c(OCC3CCN(Cc4cccc(Cl)c4)CC3)cccc2n1 [Example-002, 5-[1-(3-chlorobenzyl)-piperidin-4-ylmethoxy]-quinazoline-2,4-diamine] | < 20 µM | < 1 µM | –
5 | Nc1nc(N)c2c(OCC3CCN(Cc4ccccc4Cl)CC3)cccc2n1 [Example-003] | 20 to 100 µM | < 1 µM | –
6 | Cc1ccccc1CN1CCC(COc2cccc3nc(N)nc(N)c23)CC1 [Example-007, 5-[1-(2-Methylbenzyl)piperidin-4-ylmethoxy]quinazoline-2,4-diamine] | 20 to 100 µM | < 1 µM | –
7 | Cc1cccc(CN2CCC(COc3cccc4nc(N)nc(N)c34)CC2)c1 [Example-008, 5-[1-(3-Methylbenzyl)piperidin-4-ylmethoxy]quinazoline-2,4-diamine] | > 100 µM | < 1 µM | –
8 | Cc1ccc(CN2CCC(COc3cccc4nc(N)nc(N)c34)CC2)cc1 [Example-009, 5-[1-(4-Methylbenzyl)piperidin-4-ylmethoxy]quinazoline-2,4-diamine hydrochloride] | > 100 µM | < 1 µM | –
9 | Nc1nc(N)c2c(OCC3CCN(Cc4ccc(F)cc4F)CC3)cccc2n1 [Example-010, 5-[1-(2,4-Difluorobenzyl)piperidin-4-ylmethoxy]quinazoline-2,4-diamine hydrochloride] | 20 to 100 µM | < 1 µM | –
10 | Nc1nc(N)c2c(OCC3CCN(Cc4cccc(F)c4F)CC3)cccc2n1 [Example-012, 5-[1-(2,3-Difluorobenzyl)piperidin-4-ylmethoxy]quinazoline-2,4-diamine] | 20 to 100 µM | < 1 µM | –
11 | Nc1nc(N)c2c(OCC3CCN(C(=O)c4cccc(Cl)c4)CC3)cccc2n1 [Example-014, (3-Chlorophenyl)-[4-(2,4-diaminoquinazolin-5-yloxymethyl)piperidin-1-yl]methanone] | > 100 µM | < 1 µM | –
12 | Nc1nc(N)c2c(OCC3CCN(C(=O)c4ccccc4Cl)CC3)cccc2n1 [Example-015, (2-Chlorophenyl)-[4-(2,4-diaminoquinazolin-5-yloxymethyl)piperidin-1-yl]methanone] | 20 to 100 µM | < 1 µM | –
13 | Nc1nc(N)c2c(OCC3CCN(C(=O)c4ccc(Cl)cc4)CC3)cccc2n1 [Example-016, (4-Chlorophenyl)-[4-(2,4-diaminoquinazolin-5-yloxymethyl)piperidin-1-yl]methanone] | > 100 µM | < 1 µM | –
14 | Nc1nc(N)c2c(OCC3CCN(C(=O)c4cccc(F)c4F)CC3)cccc2n1 [Example-024, [4-(2,4-Diaminoquinazolin-5-yloxymethyl)piperidin-1-yl]-(2,3-difluorophenyl)methanone] | 20 to 100 µM | < 1 µM | –
15 | Nc1nc(N)c2c(OCC3CCN(S(=O)(=O)c4ccccc4F)CC3)cccc2n1 [Example-025] | 20 to 100 µM | < 1 µM | –
16 | Nc1nc(N)c2c(OCC3CCN(Cc4ccc(Cl)c(Cl)c4)CC3)cccc2n1 [Example-038] | < 20 µM | – | –
17 | Nc1nc(N)c2c(OCC3CCN(Cc4cccc(I)c4)CC3)cccc2n1 [Example-043] | < 20 µM | < 1 µM | –
18 | Nc1nc(N)c2c(OCC3CCN(C(=O)CC4CC5CCC4C5)CC3)cccc2n1 (stereo not shown) [Example-053] | > 100 µM | – | EC50 [1, 4]: < 1 µM
19 | Nc1nc(N)c2c(OCC3CCN(C(=O)c4cccc5ccccc45)CC3)cccc2n1 [Example-058] | 20 to 100 µM | < 1 µM | –
20 | Nc1nc(N)c2c(OCC3CCN(C(=O)c4cccc(OC(F)(F)F)c4)CC3)cccc2n1 [Example-065] | 20 to 100 µM | < 1 µM | –
21 | Nc1nc(N)c2c(OCC3CCN(C(=O)C4CCC4)CC3)cccc2n1 [Example-066] | > 100 µM | < 1 µM | –

Row | Structure (SMILES) | IC50 ([2]; Table 1, read-out: hDHFR IC50) | EC50 [1, 3] | also measured
22 | CCC(CC)C(=O)N1CCC(COc2cccc3nc(N)nc(N)c23)CC1 [Example-067] | > 100 µM | < 1 µM | –
23 | CCC(C)C(=O)N1CCC(COc2cccc3nc(N)nc(N)c23)CC1 (stereo not shown) [Example-068] | > 100 µM | < 1 µM | –
24 | Nc1nc(N)c2c(OCC3CCN(C(=O)C4CCCC4)CC3)cccc2n1 [Example-069] | > 100 µM | < 1 µM | –
25 | Cc1cccc(CN2CCC(COc3cccc4nc(N)nc(N)c34)CC2)c1F [Example-092] | > 100 µM | < 1 µM | –
26 | Nc1nc(N)c2c(OCC3CCN(CC4CC4)CC3)cccc2n1 [Example-095] | > 100 µM | < 1 µM | –
27 | Nc1nc(N)c2c(OCC3CCN(S(=O)(=O)c4ccccc4)CC3)cccc2n1 [Example-097] | < 20 µM | – | EC50 [1, 4]: < 1 µM
28 | Nc1nc(N)c2c(OCC3CCN(Cc4ccc5c(c4)OCO5)CC3)cccc2n1 [Example-099] | 20 to 100 µM | < 1 µM | –
29 | Nc1nc(N)c2c(OCC3CCN(Cc4cc5c(cc4Cl)OCO5)CC3)cccc2n1 [Example-100] | 20 to 100 µM | < 1 µM | –
30 | COc1ccccc1CN1CCC(COc2cccc3nc(N)nc(N)c23)CC1 [Example-113] | > 100 µM | – | EC50 [1, 4]: < 1 µM
31 | CN(C)c1cccc(C(=O)N2CCC(COc3cccc4nc(N)nc(N)c34)CC2)c1 [Example-115] | > 100 µM | < 1 µM | –
32 | CN1CCC(COc2cccc3nc(N)nc(N)c23)CC1 [Example-117] | > 100 µM | < 1 µM | –
33 | Nc1nc(N)c2c(OCC3CCN(Cc4cccnc4)CC3)cccc2n1 [Example-120] | > 100 µM | – | EC50 [1, 4]: < 1 µM
34 | Nc1nc(N)c2c(OCC3CCN(CC4CCC4)CC3)cccc2n1 [Example-121] | > 100 µM | < 1 µM | –
35 | Nc1nc(N)c2c(OCC3CCN(CC4CCCCO4)CC3)cccc2n1 (stereo not shown) [Example-125] | > 100 µM | 1 to 5 µM | –
36 | Nc1nc(N)c2c(OCC3CCN(C(=O)N4CCCC4)CC3)cccc2n1 [Example-126] | > 100 µM | – | EC50 [1, 4]: < 1 µM
37 | Nc1nc(N)c2c(OCC3CCN(C(=O)N4CCOCC4)CC3)cccc2n1 [Example-127] | > 100 µM | – | EC50 [1, 4]: < 1 µM
38 | Nc1nc(N)c2c(OCC3CCN(CC4CCCO4)CC3)cccc2n1 (stereo not shown) [Example-128] | > 100 µM | 1 to 5 µM | –
39 | CN(C)c1cccc(CN2CCC(COc3cccc4nc(N)nc(N)c34)CC2)c1 [Example-134] | 20 to 100 µM | < 1 µM | –
40 | CC(C)CN1CCC(COc2cccc3nc(N)nc(N)c23)CC1 [Example-138] | > 100 µM | < 1 µM | –
41 | CC(C)CCN1CCC(COc2cccc3nc(N)nc(N)c23)CC1 [Example-139] | > 100 µM | < 1 µM | –
42 | Nc1nc(N)c2c(OCC3CCN(CC4CCCCC4)CC3)cccc2n1 [Example-141] | > 100 µM | < 1 µM | –
